# Patent US20070043079A1, “Heterocyclic compound containing nitrogen atom and use thereof” (priority 2003, published 2007)
# Structures can show the parent of a compound that is named as a salt.
# Biological target: T1, human CCR5 (Homo sapiens, UniProt P51681)
# T1 construct: expressed in transfected cells
# Assay: Inhibition test on the binding of RANTES to CCR5 (RANTES-induced transient increase of Ca ion) in CCR5/CHO cells
# Format: cell-based
# Procedure: The whole procedures were carried out by preparing gene high expressing cells under basic genetic engineering methods by utilizing conventional methods. Also, as to the methods for the measurement in the present invention, improvement of measurement accuracy and/or modification of measurement sensitivity were adopted in order to evaluate the compound of the present invention. Detailed methods for the experiment are illustrated below.
# (1) Isolation of Human CCR5 Genes
# Human placental cDNA was prepared using Marathon cDNA amplification kit (Clontech). […]
# Thus established human CCR5 stable over-expressing CHO cells (CCR5/CHO cells) were suspended in Ham's F-12 medium containing FBS (10%) and dispensed in […] portions into a 96 well plate. […] Transient increase in the intracellular Ca^2+ concentration induced by the human RANTES was measured using a Ca^2+ detector for 96 well use (Hamamatsu Photonics), and inhibition ration (%) of the test compound was calculated by the following calculation formula. Inhibition ratio=(Ec−Ea)/Ec×100 • Ec: measured value of Ca^2+ transient increase by RANTES • Ea: measured value of Ca^2+ transient increase by RANTES when a test compound was added
# T1 sequence (P51681 whole entry): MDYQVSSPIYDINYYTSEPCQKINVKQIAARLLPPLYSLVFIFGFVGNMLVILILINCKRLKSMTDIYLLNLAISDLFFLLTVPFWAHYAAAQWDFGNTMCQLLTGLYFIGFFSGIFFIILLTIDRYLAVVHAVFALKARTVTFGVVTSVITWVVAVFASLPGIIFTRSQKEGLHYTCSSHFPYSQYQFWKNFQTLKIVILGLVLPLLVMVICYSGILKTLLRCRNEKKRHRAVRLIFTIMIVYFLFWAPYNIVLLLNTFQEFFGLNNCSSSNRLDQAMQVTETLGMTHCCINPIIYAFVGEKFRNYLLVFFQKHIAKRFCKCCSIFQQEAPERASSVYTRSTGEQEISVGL
structure (smiles),measurement,value
"COc1ccc(CN2CCC(c3ccc(CNC(=O)c4ccc(Cl)cc4)cc3)CC2)cc1OC [Example 1, 4-chloro-N-{4-[1-(3,4-dimethoxybenzyl)piperidin-4-yl]benzyl}benzamide hydrochloride]",IC50,4.16 µM
